“And” between values parts separate entries of the source, which are not always exact repeats. Equal entries are not always repeated. Where two headings read alike, the source gives them in different places. Numbered stars: 1 amine (or outer) side, 2 acyl side, 3 side chain; on linkers, the order of the positions; unused ones are H or OH. Bridge positions count the residues as written; N and C are the ends. Square brackets hold non-standard residues; d marks the D form. Peptide text beside a SMILES is read from it. * marks the point of attachment. Orn(4R-OH,5R-OH) = O=C([C@H](C[C@@H](O)[C@@H](O)N[*:3])N[*:1])[*:2]; hTyr(3S-OH,4S-OH) = N[C@H](C(=O)O)[C@H](O)[C@@H](O)c1ccc(O)cc1; Pro(3S-OH,4S-Me) = C[C@H]1CN[C@H](C(=O)O)[C@H]1O; X1 = O=C(c1cc(I)c(N[*:1])c(I)c1)[*:2]; X5 = O=C(c1cc(Cl)cc(N[*:1])c1Cl)[*:2]; X6 = O=C(C=Cc1ccc(N[*:1])cc1)[*:2]; Palmitoyl = CCCCCCCCCCCCCCCC(=O)*; Hyp = O=C(O)[C@@H]1C[C@@H](O)CN1; X2 = O=C(Cc1ccc(N[*:1])cc1)[*:2]; Myristoyl = CCCCCCCCCCCCCC(=O)*; X3 = O=C(c1cccnc1N[*:1])[*:2]; Lauroyl = CCCCCCCCCCCC(=O)*; 4Abz = Nc1ccc(C(=O)O)cc1
How the values were obtained:
[1] = system: Trichophyton mentagrophytes; assay: Agar plate disc diffusion test, zone of inhibition; assay type: cell-based; settings: 7 mm disc
Description: (§1) ^(a) Compounds were tested as suspension in methanol.
(§2) were tested at a concentration of 1 mg/ml by a dipping 7mm disc into the
(§3) suspension and placing it on the agar surface. Incubation: 24-48 hours at

[2] = system: Candida albicans A-26; assay: Therapeutic activity against Candida albicans A-26 infection in mice; assay type: in vivo; settings: A26, sc
Description: The results of in vivo tests to evaluate the effectiveness of the compound of Examples 61-81, 86 and 88 against an infection caused by Candida albicans A-26 in mice are given in Table 7, where activity is measured by the ED50 value (the dose in mg/kg. required to cure 50% of the test animals). Where an ED50 value was not obtained, activity is indicated by the lowest dose at which a significant anti-fungal effect is observed. In this test, groups of male albino mice (specific pathogen free), weighing 18 to 20 grams, are infected intravenously with Candida albicans A-26. The animals are X-irradiated 24 hours prior to infection at about 50 roentgens per minute for 8 minutes (400 total dose) to reduce immune responses to the infecting organism. At 0, 4, and 24 hours post infection each group of mice is given graded doses subcutaneously of the test compound as a suspension in 33% polyethylene glycol-water. The day of death for each animal is recorded.
*Dosage Schedule: 40, 20, 15, and 10 mg/kg. Dosages given 0, 4, and 24
hours post injection as suspension of test compound in 30% PEGH2 O.
Number of mice receiving test compounds at each dosage level: 6 mice per
group. Number of mice in control (untreated) group: 10 mice per group.
**As measured by increase in survival time of treated animals versus
control, calculated by method of Reed V. Mueuch, American J. Hygiene, 493

[3] = system: Saccharomyces pastorianus X-52; assay: Agar plate disc diffusion test, zone of inhibition; assay type: cell-based; settings: Saccharomyces pastorianus, X52, 48 h, 1 mg/ml suspension in methanol, 7 mm disc, 24-48 hours at 25-37° C.
Description: as §1, §2, §3

[4] = system: Candida albicans A-26; assay: Agar plate disc diffusion test, zone of inhibition; assay type: cell-based; settings: 7 mm disc; for Size of Zone of Inhibition: 1 mg/ml suspension in methanol, 24-48 hours at 25-37° C., no regrowth mark
Description: as §1, §2, §3

[5] = system: Trychophyton mentagrophytes #6; assay: Agar plate disc diffusion test, MIC per disc; assay type: cell-based; settings: 0.01M sodium borate, pH 7.5, 24 hours at 30° C.
Description: (§4) In Table 5, activity is measured by the minimal inhibitory concentration (MIC) of the substance (μg/disc) required to inhibit growth of the test organism.
(§5) *Compounds were suspended in 0.01M sodium borate solution, pH 7.5.
(§6) compounds were tested at 20 μg/disc at top level and at twofold
(§7) dilutions until end points were reached.

[6] = system: Candida albicans A-26; assay: Agar plate disc diffusion test, MIC per disc; assay type: cell-based; settings: 0.01M sodium borate, pH 7.5, 24 hours at 30° C.
Description: as §4, §5, §6, §7

[7] = system: Neurospora Crassa 846; assay: Agar plate disc diffusion test, zone of inhibition; assay type: cell-based; settings: Neurospora crassa, 1 mg/ml, 7 mm disc, * measurable zone of inhibition with regrowth of organism around disc
Description: as §1, §2, §3

[8] = Blood levels after oral administration in mice; settings: for concentration at 4 h: mouse, po, 416 mg/kg
Description: (§8) In this test, mice are gavaged with a dose of 416 mg/kg of the test compound suspended in 33% PEG 400-water. At time intervals, blood samples are taken from the orbital sinus and are assayed for antibiotic activity as follows: A 7 mm. disc containing 20 μl of whole blood is placed on agar seeded with Aspergillus montevidensis A35137. After 40 hours incubation at 30° C. zones of inhibition from the blood samples are compared to a standard obtained from the test compound, and the amount of compound in the blood sample is calculated.

[9] = in vivo; settings: mouse, po, 416 mg/kg
Description: as §8

[10] = mouse, in vivo, 416 mg/kg, 240 min
Description: as §8

[11] = 1 mg/ml, * measurable zone of inhibition with regrowth of organism around disc, read-out: Size of Zone of Inhibition (*)
[12] = read-out: Lowest Active Dose, subcutaneous at 0, 4 and 24 hours post infection, lowest dose with significant anti-fungal effect
[13] = Saccharomyces pastorianus X-52, read-out: Size of Zone of Inhibition
[14] = CRASSA846, Neurospora Crassa 846, read-out: Size of Zone of Inhibition (*)
[15] = subcutaneous at 0, 4 and 24 hours post infection, dose to cure 50% of test animals, by increase in survival time, read-out: ED50
[16] = subcutaneous at 0, 4 and 24 hours post infection, lowest dose with significant anti-fungal effect, read-out: Lowest Active Dose

Row | Structure (SMILES) | zone of inhibition at 1000 µg/mL [1, 11] [mm] | ED50 [2] [mg/kg] | minimal effective dose [2, 12] [mg/kg] | zone of inhibition at 1000 µg/mL [3, 13] [mm] | Size of Zone of Inhibition [4] [mm] | MIC [5] [μg/disc] | MIC [6] | zone of inhibition at 1000 µg/mL [7, 14] [mm] | concentration at 4 h ([8]; blood) [µg/mL] | zone of inhibition at 1000 µg/mL ([1]; 48 h, 1 mg/ml suspension in methanol, 24-48 hours at 25-37° C., no regrowth mark, read-out: Size of Zone of Inhibition) [mm] | ED50 [2, 15] [mg/kg] | minimal effective dose [2, 16] [mg/kg] | concentration at 4 h [9] [µg/mL] | Size of Zone of Inhibition (*) ([4]; 1 mg/ml, * measurable zone of inhibition with regrowth of organism around disc) [mm] | zone of inhibition at 1000 µg/mL ([3]; read-out: Size of Zone of Inhibition, Saccharomyces pastorianus X-52) [mm] | zone of inhibition at 1000 µg/mL ([7]; CRASSA846, read-out: Size of Zone of Inhibition (*), Neurospora Crassa 846) [mm] | concentration at 4 h ([8]; in vivo) [µg/mL] | Blood Levels [10] [µg/mL] | Blood Levels ([8]; mice, 416 mg/kg by gavage in 33% PEG 400-water, four hours after administration, bioassay vs. Aspergillus montevidensis A35137) [µg/mL]
1 | CCCCCCCCCCCC(=O)Nc1cc(Cl)cc(C(=O)N[C@H]2C[C@@H](O)[C@@H](O)NC(=O)[C@@H]3[C@@H](O)[C@@H](C)CN3C(=O)[C@H]([C@@H](C)O)NC(=O)[C@H]([C@H](O)[C@@H](O)c3ccc(O)cc3)NC(=O)[C@@H]3C[C@@H](O)CN3C(=O)[C@H]([C@@H](C)O)NC2=O)c1Cl [Example 67] (Lauroyl-[X5][Orn(4R-OH,5R-OH)]T[Hyp][hTyr(3S-OH,4S-OH)]T[Pro(3S-OH,4S-Me)]; lactam 2-C) | 44 | 14 | 10 | 19 | 27 | < 0.039 | 0.625 μg/disc | 35 | 0.53 |  |  |  |  |  |  |  |  |  | 
2 | CCCCCCCCCCCC(=O)Nc1c(I)cc(C(=O)N[C@H]2C[C@@H](O)[C@@H](O)NC(=O)[C@@H]3[C@@H](O)[C@@H](C)CN3C(=O)[C@H]([C@@H](C)O)NC(=O)[C@H]([C@H](O)[C@@H](O)c3ccc(O)cc3)NC(=O)[C@@H]3C[C@@H](O)CN3C(=O)[C@H]([C@@H](C)O)NC2=O)cc1I [Example 68] (Lauroyl-[X1][Orn(4R-OH,5R-OH)]T[Hyp][hTyr(3S-OH,4S-OH)]T[Pro(3S-OH,4S-Me)]; lactam 2-C) |  |  |  | 17 | 25 | 0.078 | 1.25 μg/disc | 30 |  | 60 | > 40 | 40 | 0.34 |  |  |  |  |  | 
3 | CCCCCCCCCCCC(=O)Nc1ccc(CC(=O)N[C@H]2C[C@@H](O)[C@@H](O)NC(=O)[C@@H]3[C@@H](O)[C@@H](C)CN3C(=O)[C@H]([C@@H](C)O)NC(=O)[C@H]([C@H](O)[C@@H](O)c3ccc(O)cc3)NC(=O)[C@@H]3C[C@@H](O)CN3C(=O)[C@H]([C@@H](C)O)NC2=O)cc1 [Example 72] (Lauroyl-[X2][Orn(4R-OH,5R-OH)]T[Hyp][hTyr(3S-OH,4S-OH)]T[Pro(3S-OH,4S-Me)]; lactam 2-C) | 55 |  |  | 20 | 19 | 0.078 | 2.5 μg/disc | 30 |  |  | > 40 | 40 | 0.34 |  |  |  |  |  | 
4 | CCCCCCCCCCCC(=O)Nc1ccc(C=CC(=O)N[C@H]2C[C@@H](O)[C@@H](O)NC(=O)[C@@H]3[C@@H](O)[C@@H](C)CN3C(=O)[C@H]([C@@H](C)O)NC(=O)[C@H]([C@H](O)[C@@H](O)c3ccc(O)cc3)NC(=O)[C@@H]3C[C@@H](O)CN3C(=O)[C@H]([C@@H](C)O)NC2=O)cc1 [Example 73] (Lauroyl-[X6][Orn(4R-OH,5R-OH)]T[Hyp][hTyr(3S-OH,4S-OH)]T[Pro(3S-OH,4S-Me)]; lactam 2-C) | 24 |  |  | 17 |  | < 0.039 | 1.25 μg/disc | 29 |  |  | 24 | 20 | 1.31 | 60 |  |  |  |  | 
5 | CCCCCCCCCCCC(=O)Nc1ccc(C(=O)NCC(=O)N[C@H]2C[C@@H](O)[C@@H](O)NC(=O)[C@@H]3[C@@H](O)[C@@H](C)CN3C(=O)[C@H]([C@@H](C)O)NC(=O)[C@H]([C@H](O)[C@@H](O)c3ccc(O)cc3)NC(=O)[C@@H]3C[C@@H](O)CN3C(=O)[C@H]([C@@H](C)O)NC2=O)cc1 [Example 74] ({Lauroyl-4Abz}-G[Orn(4R-OH,5R-OH)]T[Hyp][hTyr(3S-OH,4S-OH)]T[Pro(3S-OH,4S-Me)]; lactam 2-C) |  | > 40 | > 40 |  | 15 | 0.078 | 10 μg/disc |  |  |  |  |  |  |  | 13 | 28 | 0.64 |  | 
6 | CCCCCCCCCCCC(=O)Nc1ncccc1C(=O)N[C@H]1C[C@@H](O)[C@@H](O)NC(=O)[C@@H]2[C@@H](O)[C@@H](C)CN2C(=O)[C@H]([C@@H](C)O)NC(=O)[C@H]([C@H](O)[C@@H](O)c2ccc(O)cc2)NC(=O)[C@@H]2C[C@@H](O)CN2C(=O)[C@H]([C@@H](C)O)NC1=O [Example 75] (Lauroyl-[X3][Orn(4R-OH,5R-OH)]T[Hyp][hTyr(3S-OH,4S-OH)]T[Pro(3S-OH,4S-Me)]; lactam 2-C) | 54 |  |  | 14 | 24 | 0.078 | 2.5 μg/disc | 30 |  |  | > 40 | > 40 |  |  |  |  |  | 0 | 
7 | CC(=O)Nc1ccc(C(=O)N[C@H]2C[C@@H](O)[C@@H](O)NC(=O)[C@@H]3[C@@H](O)[C@@H](C)CN3C(=O)[C@H]([C@@H](C)O)NC(=O)[C@H]([C@H](O)[C@@H](O)c3ccc(O)cc3)NC(=O)[C@@H]3C[C@@H](O)CN3C(=O)[C@H]([C@@H](C)O)NC2=O)cc1 [Example 77] (Ac-[4Abz][Orn(4R-OH,5R-OH)]T[Hyp][hTyr(3S-OH,4S-OH)]T[Pro(3S-OH,4S-Me)]; lactam 2-C) | 51 | > 40 | > 40 | 17 | 24 | 0.312 | > 20 μg/disc and 40 μg/disc | 24 |  |  |  |  |  |  |  |  |  |  | 0
8 | CCCCCCCCCCCCCC(=O)Nc1ccc(C(=O)N[C@H]2C[C@@H](O)[C@@H](O)NC(=O)[C@@H]3[C@@H](O)[C@@H](C)CN3C(=O)[C@H]([C@@H](C)O)NC(=O)[C@H]([C@H](O)[C@@H](O)c3ccc(O)cc3)NC(=O)[C@@H]3C[C@@H](O)CN3C(=O)[C@H]([C@@H](C)O)NC2=O)cc1 [Example 80] ({Myristoyl-4Abz}-[Orn(4R-OH,5R-OH)]T[Hyp][hTyr(3S-OH,4S-OH)]T[Pro(3S-OH,4S-Me)]; lactam 1-C) |  | 11 | 2.5 | 17 | 22 | < 0.039 | 1.25 μg/disc |  | 6.5 |  |  |  |  |  |  |  |  |  | 
9 | CCCCCCCCCCCCCCCC(=O)Nc1ccc(C(=O)N[C@H]2C[C@@H](O)[C@@H](O)NC(=O)[C@@H]3[C@@H](O)[C@@H](C)CN3C(=O)[C@H]([C@@H](C)O)NC(=O)[C@H]([C@H](O)[C@@H](O)c3ccc(O)cc3)NC(=O)[C@@H]3C[C@@H](O)CN3C(=O)[C@H]([C@@H](C)O)NC2=O)cc1 [Example 81] ({Palmitoyl-4Abz}-[Orn(4R-OH,5R-OH)]T[Hyp][hTyr(3S-OH,4S-OH)]T[Pro(3S-OH,4S-Me)]; lactam 1-C) |  | 7 | 5 | 24 | 25 | < 0.039 | 0.312 μg/disc |  | 36 |  |  |  |  |  |  |  |  |  | 

Source: patent publication US4293483A, “Derivatives of A-30912A nucleus” (priority 1980, dated 1981)
